Some test systems named below: T47D; A549; ACHN; UO-31; KM12; NCI-H226; TK-10; 786-0; BT-549; NCI-H23; Malme-3M; HCT-116; MDA-MB-435; DU-145; RPMI-8226; COLO 205; OVCAR-3; SK-MEL-28.
Common to all, as to experiment: NCI anticancer screen, dose series, 48 h

The structures appear in SMILES notation.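 A five-concentration, 48-hour dose response in 96-well plates underlies each endpoint, interpolated linearly between surrounding concentrations. The concentration for 50% growth inhibition is given as GI50.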 Active and inactive are the calls of the source. No stated cut-off is given here; in the data, active = GI50 up to about 1.1 µM and inactive = higher. Where only a bound is given, the exact number is not on record here.

The text below walks through data of ChEMBL document CHEMBL1201862, “PubChem BioAssay data set” (2004).

As to `NN(CC(=O)O)CC(=O)O`, the GI50 with T47D, in the assay with A549, in the assay with ACHN, with UO-31, with KM12 and with NCI-H226 was > 100 µM (inactive) each time. Besides, the GI50 with TK-10, in the assay on 786-0, with BT-549, with NCI-H23, with Malme-3M and in the assay on HCT-116 was > 100 µM (inactive) in each case. Moreover, the GI50 with MDA-MB-435, with DU-145, with RPMI-8226, in the assay with COLO 205, in the assay with OVCAR-3 and in the assay with SK-MEL-28 was > 100 µM (inactive) each time.
Turning to `COc1ccc(OC)c2c(C)ccnc12`, the GI50 was 22.5 µM (inactive) with T47D; 21.4 µM (inactive) with A549; 18.3 µM (inactive) in the assay on ACHN; 6.78 µM (inactive) in the assay with UO-31; 37.2 µM (inactive) in the assay with KM12; 25.5 µM (inactive) in the assay with NCI-H226. Also, the GI50 is 81.7 µM (inactive) in the assay on TK-10; 22.3 µM (inactive) in the assay on 786-0; 27.4 µM (inactive) with BT-549; 27.2 µM (inactive) with NCI-H23; 12.2 µM (inactive) with Malme-3M; 6.31 µM (inactive) in the assay with HCT-116. For the same compound, the GI50 in the assay with MDA-MB-435 was 25.7 µM (inactive); with DU-145, 24.1 µM (inactive); in the assay with RPMI-8226 it was 32.9 µM (inactive); in the assay with COLO 205, 39.5 µM (inactive); in the assay on OVCAR-3, 2.99 µM (inactive); with SK-MEL-28, 36.6 µM (inactive).
For the compound `O=[N+]([O-])c1cc([As](Br)c2ccc(O)c([N+](=O)[O-])c2)ccc1O`, the GI50 is 0.204 µM (active) in the assay with T47D; 2.62 µM (inactive) in the assay on A549; 1.86 µM (inactive) in the assay with ACHN; 1.61 µM (inactive) with UO-31; 2 µM (inactive) in the assay with KM12; 1.5 µM (inactive) in the assay on NCI-H226. In addition, the GI50 in the assay with TK-10 was 1.58 µM (inactive); in the assay on 786-0 it was 1.44 µM (inactive); in the assay with BT-549 it was 1.88 µM (inactive); in the assay with NCI-H23, 2.17 µM (inactive); with Malme-3M, 0.632 µM (active); with HCT-116, 2 µM (inactive). The GI50 in the assay with MDA-MB-435 was 1.78 µM (inactive); in the assay on DU-145, 2 µM (inactive); in the assay with RPMI-8226 it was 0.208 µM (active); with COLO 205 it was 1.26 µM (inactive); with OVCAR-3, 1.81 µM (inactive); with SK-MEL-28, 1.63 µM (inactive).
`c1cc2nsnc2c2c[nH]cc12`: the GI50 in the assay with T47D was 21 µM (inactive); in the assay on A549, 64.9 µM (inactive); in the assay with ACHN it was 81.5 µM (inactive); in the assay on UO-31, 25.5 µM (inactive); in the assay with KM12, > 100 µM (inactive); in the assay with NCI-H226, 99.5 µM (inactive). The GI50 in the assay on TK-10 was > 100 µM (inactive); in the assay on 786-0 it was > 100 µM (inactive); with BT-549, 49.7 µM (inactive); in the assay on NCI-H23 it was > 100 µM (inactive); with Malme-3M it was > 100 µM (inactive); in the assay with HCT-116, > 100 µM (inactive). For the same compound, the GI50 was 40.6 µM (inactive) in the assay on MDA-MB-435; > 100 µM (inactive) with DU-145; > 100 µM (inactive) in the assay with RPMI-8226; > 100 µM (inactive) in the assay on COLO 205; > 100 µM (inactive) in the assay on OVCAR-3; > 100 µM (inactive) in the assay with SK-MEL-28.
Consider `CCOC(=O)Cn1c(=O)c2cc(-c3ccccc3)cc3c(Cl)nc4c(OC)c(OC)cc1c4c32`, for which the GI50 in the assay on T47D is 16 µM (inactive); with A549, 28 µM (inactive); in the assay on ACHN, 19.9 µM (inactive); in the assay on UO-31, 2.07 µM (inactive); in the assay with KM12, 31.6 µM (inactive); in the assay on NCI-H226 it was > 39.6 µM (inactive). The GI50 in the assay on TK-10 is 31.7 µM (inactive); in the assay on 786-0, 14.8 µM (inactive); in the assay with BT-549 it was 18.5 µM (inactive); with NCI-H23, 15.3 µM (inactive); in the assay with Malme-3M, 0.578 µM (active); with HCT-116, 13.9 µM (inactive). For the same compound, the GI50 with MDA-MB-435 is 17.4 µM (inactive); in the assay on DU-145, 21.4 µM (inactive); in the assay with RPMI-8226, 4.91 µM (inactive); with COLO 205, 50.6 µM (inactive); with OVCAR-3 it was 20.9 µM (inactive); in the assay on SK-MEL-28, 21 µM (inactive).
For the compound `COc1ccc2[nH]c3c([N+](=O)[O-])ccc(Cl)c3c(=O)c2c1`, the GI50 with T47D was 29.2 µM (inactive); in the assay on A549 it was 62.4 µM (inactive); with ACHN, 15.8 µM (inactive); in the assay with UO-31, 17.3 µM (inactive); in the assay on KM12, > 45.5 µM (inactive); in the assay with NCI-H226, 34.4 µM (inactive). Besides, the GI50 in the assay on TK-10 is 20.2 µM (inactive); in the assay on 786-0 it was 16.7 µM (inactive); with BT-549 it was 17.2 µM (inactive); with NCI-H23, 24.8 µM (inactive); in the assay on Malme-3M it was 19.6 µM (inactive); in the assay with HCT-116 it was 13.7 µM (inactive). Besides, the GI50 in the assay on MDA-MB-435 is 21 µM (inactive); in the assay on DU-145, 47.3 µM (inactive); in the assay with RPMI-8226, 17.4 µM (inactive); with COLO 205 it was 17 µM (inactive); in the assay with OVCAR-3, 16.8 µM (inactive); with SK-MEL-28, 27.2 µM (inactive).
`Cc1cc(-c2nc3cc(F)ccc3s2)ccc1NC(=O)[C@@H](N)CCCCN`: the GI50 in the assay with T47D is < 0.0138 µM (active); in the assay on A549 it was 1.67 µM (inactive); with ACHN it was 6.04 µM (inactive); with UO-31 it was 3.29 µM (inactive); in the assay on KM12, 1.3 µM (inactive); with NCI-H226, 0.134 µM (active). The GI50 in the assay on TK-10 is < 0.0132 µM (active); in the assay on 786-0, 2.69 µM (inactive); in the assay on BT-549 it was 12.9 µM (inactive); in the assay on NCI-H23, 1.48 µM (inactive); with Malme-3M, 17.4 µM (inactive); in the assay with HCT-116, 2 µM (inactive). Moreover, the GI50 is 1.79 µM (inactive) in the assay on MDA-MB-435; 13.9 µM (inactive) in the assay with DU-145; 2.09 µM (inactive) in the assay with RPMI-8226; 2.58 µM (inactive) in the assay with COLO 205; 6.11 µM (inactive) in the assay with OVCAR-3; 18.9 µM (inactive) in the assay on SK-MEL-28.
On to `CCSCCC(N)C(=O)O` (stereo not drawn), for which the GI50 in the assay with T47D, in the assay on A549, in the assay with ACHN, with UO-31, in the assay on KM12 and in the assay on NCI-H226 was > 100 µM (inactive) throughout. For the same compound, the GI50 in the assay on TK-10, in the assay with 786-0, in the assay with BT-549, with NCI-H23, in the assay with Malme-3M and with HCT-116 was > 100 µM (inactive) each time. Further, the GI50 in the assay on MDA-MB-435, in the assay with DU-145, in the assay with RPMI-8226, in the assay on COLO 205, in the assay on OVCAR-3 and in the assay with SK-MEL-28 was > 100 µM (inactive) in each case.
Regarding `O=C1c2c[nH]nc2C(c2ccccc2)N1c1ccccc1` (stereo not drawn), the GI50 with T47D, in the assay with A549, with ACHN, in the assay on UO-31, in the assay with KM12 and in the assay on NCI-H226 was > 10 µM (inactive) each time. The GI50 in the assay on TK-10, in the assay with 786-0, with BT-549, in the assay on NCI-H23, in the assay with Malme-3M and with HCT-116 was > 10 µM (inactive) throughout. Besides, the GI50 with MDA-MB-435, in the assay with DU-145, with RPMI-8226, in the assay with COLO 205, with OVCAR-3 and in the assay with SK-MEL-28 was > 10 µM (inactive) throughout.
As for `O=C1CCCC(=O)N1n1c(Cc2ccccc2)n[nH]c1=O`, the GI50 in the assay on T47D, in the assay on A549, with ACHN, with UO-31, in the assay with KM12 and in the assay with NCI-H226 was > 100 µM (inactive) in each case. Also, the GI50 with TK-10, in the assay with 786-0, in the assay on BT-549, in the assay on NCI-H23, in the assay with Malme-3M and in the assay on HCT-116 was > 100 µM (inactive) throughout. Also, the GI50 in the assay on MDA-MB-435, with DU-145, with RPMI-8226, in the assay with COLO 205, in the assay with OVCAR-3 and in the assay on SK-MEL-28 was > 100 µM (inactive) in each case.
For the compound `O=C1CNCCCN2CCN(CCCNCC(=O)Nc3ccc(cc3)S(=O)(=O)c3ccc(cc3)NC(=O)CNCCCN3CCN(CCCNCC(=O)Nc4ccc(cc4)S(=O)(=O)c4ccc(cc4)N1)CC3)CC2`, the GI50 is 27.9 µM (inactive) in the assay on T47D; 57.3 µM (inactive) with A549; 25.6 µM (inactive) in the assay on ACHN; 61 µM (inactive) with UO-31; 27.2 µM (inactive) in the assay on KM12; > 47.1 µM (inactive) with NCI-H226. Also, the GI50 is 20.8 µM (inactive) in the assay on TK-10; 16.3 µM (inactive) with 786-0; 30 µM (inactive) in the assay with BT-549; 30.3 µM (inactive) with NCI-H23; 11.9 µM (inactive) with Malme-3M; 21.5 µM (inactive) in the assay with HCT-116. The GI50 is 20.9 µM (inactive) with MDA-MB-435; 41.4 µM (inactive) in the assay with DU-145; 29.2 µM (inactive) with RPMI-8226; 34.8 µM (inactive) in the assay on COLO 205; 41.7 µM (inactive) in the assay with OVCAR-3; 22.3 µM (inactive) in the assay on SK-MEL-28.
